Values of other authors in patent publication US20050154016A1, “Preventives for hiv infection” (priority 2002, published 2005).

Test system: R5 HIV-1
Conditions: reported in non-patent document 18

Cc1ccc(-c2ccc3c(c2)C=C(C(=O)Nc2ccc(C[N+](C)(C)C4CCOCC4)cc2)CCC3)cc1.[Cl-] [TAK-779]
inhibitory effect against HIV-1 infection caused by R5 HIV-1: exhibits an inhibitory effect
